Results taken from patent US7335644B2, “Anti-hypertensive molecules and process for preparation thereof” (Council of Scientific and Industrial Research, priority 2003, dated 2008).

System: arterial blood pressure of hypertensive Wistar rats
Conditions: 1 mg/kg

C[C@H](CS)C(=O)N1CCC[C@H]1C(=O)O [captopril]
fall of blood pressure (reference inhibitor): 60 mm Hg | time during which still quite effective in blocking angiotensin-converting enzyme (reference inhibitor): ≥ 180 min | time for blood pressure to return to baseline (reference inhibitor (not shown)): 240 min
